Target: T1, BMPR1B (ALK6) (Homo sapiens, UniProt O00238)
T1 construct: purchased Thermo Fisher Scientific (Life Technologies) SelectScreen
Test: SelectScreen LanthaScreen
Assay type: binding
Settings: read-out: % displacement
How it was run: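 NU5455 was profiled across the SelectScreen Broad panel of kinase activity and binding assays. Z'LYTE reactions such as CSF1R ran at apparent Km ATP, while the Adapta CAMK1 assay used ATP listed as 10. Values are given as percent.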

T1 sequence (O00238 14-502): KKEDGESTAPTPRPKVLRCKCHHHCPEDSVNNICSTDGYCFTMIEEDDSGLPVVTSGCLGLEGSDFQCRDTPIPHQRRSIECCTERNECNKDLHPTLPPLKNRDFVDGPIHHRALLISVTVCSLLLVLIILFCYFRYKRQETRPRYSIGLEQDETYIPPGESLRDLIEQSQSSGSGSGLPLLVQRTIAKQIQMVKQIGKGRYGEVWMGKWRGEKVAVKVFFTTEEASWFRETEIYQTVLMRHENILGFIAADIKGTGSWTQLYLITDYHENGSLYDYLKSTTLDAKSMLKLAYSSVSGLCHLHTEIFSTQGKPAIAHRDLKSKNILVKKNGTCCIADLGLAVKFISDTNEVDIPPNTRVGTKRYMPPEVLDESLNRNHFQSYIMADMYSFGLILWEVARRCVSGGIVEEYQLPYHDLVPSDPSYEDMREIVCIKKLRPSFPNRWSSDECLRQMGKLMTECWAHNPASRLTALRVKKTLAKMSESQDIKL

## CN(C(=O)CN1CCOCC1)c1ccc2sc3c(-c4cccc5c(=O)cc(N6CC7CCC(C6)O7)oc45)cccc3c2c1 [NU5455]
  inhibition at 1 µM: 14.5%
